From patent US8946268B2, “Modulators of HEC1 activity and methods therefor” (Taivex Therapeutics, Inc., priority 2010, dated 2015)
Where “and” joins values, the source holds several entries; their conditions need not be identical. Equal entries are not always repeated. Where two headings read alike, the source gives them in different places.

Experiments:
[1] = Pharmacokinetics in rats after i.v. injection; type: in vivo, SD rat
Procedure: (§1) Bioavailability: Selected compounds were administered to rats per os or via injection following well known procedures.

[2] = Pharmacokinetics in rats after oral administration; type: in vivo, SD rat; conditions: for MRT inf: read-out: MRT0-inf
Procedure: as §1

[3] = Combination of Hec1 inhibitors with chemotherapeutic inhibitors; conditions: preliminary data
[4] = test system: Hela; assay: Antiproliferative activity (MTS assay), Hela; type: cell-based; conditions: Homo sapiens, HeLa, 96 h, Hela cells
Procedure: (§2) Antiproliferative effect is expressed as IC50 values in microMolar final concentration.
(§3) Cells were grown at 37° C. in a humidified atmosphere with 5% CO2 and 95% air. Cells were seeded in 96 well tissue culture plates.
(§4) Compound treatment started after overnight incubation of cells (TO). […] Compound was added to the plate in triplicate wells, and the plates were then incubated for 96 hours. DMSO (compounds diluents) was also included and added to the plate in control wells. Cell viability was then determined by MTS assay using CellTiter 96® AQueous non-radioactive cell proliferation assay system (Promega). A plate reader (Molecular Devices, Vmax) was used to read the optical densities, and the results were used to deduce concentration-response curves. […] The results were analyzed using linear regression software (GraphPad Prism 5; GraphPad Software Inc.).
(§5) The GI50 values (growth inhibitory activity) were determined to emphasize on the correction for the cell count at time zero; thus, the % inhibition of test drug were: [1−(T−T0)/(C−T0)]×100; and these value were used to plot the concentration-response curves, and then analyzed with linear regression software (GraphPad Prism 5).

[5] = test system: K562; assay: Antiproliferative activity (MTS assay), K562; type: cell-based; conditions: Homo sapiens, K562, 96 h, K562 cells
Procedure: as §2, §3, §4, §5

[6] = test system: MDA-MB-468; assay: Antiproliferative activity (MTS assay), MDA-MB-468; type: cell-based; conditions: Homo sapiens, MDA-MB-468, 96 h, MDA-MB-468 cells
Procedure: as §2, §3, §4, §5

[7] = test system: MDA-MB-231; assay: Antiproliferative activity (MTS assay), MDA-MB-231; type: cell-based; conditions: Homo sapiens, MDA-MB-231, 96 h, MDA-MB-231 cells
Procedure: as §2, §3, §4, §5

[8] = compound 42 i.v., SD rat, individual rats No. 1-3
[9] = compound 42 oral, SD rat, individual rats No. 1-3
[10] = i.v. 2 mg/kg, SD rat, individual rats No. 1-3, 2 mg/kg
[11] = Sprague-Dawley, rat, serum, po, 20 mg/kg, oral 20 mg/kg, 1% methyl-cellulose, SD rat, Mean
[12] = Sprague-Dawley, rat, serum, po, 20 mg/kg, oral 20 mg/kg, SD rat, individual rats No. 1-3
[13] = oral 20 mg/kg, SD rat, individual rats No. 1-3, 20 mg/kg
[14] = compound 95 i.v., SD rat, individual rats No. 1-3
[15] = compound 95 oral, SD rat, individual rats No. 1-3

SMILES | IC50 [4] | IC50 [5] | IC50 [6] | IC50 [7] | other results
COc1cc(C)c(-c2csc(NC(=O)c3ccncc3)n2)c(C)c1 [Compound 42] | – | – | – | – | C0 ([1]; Sprague-Dawley, rat, serum, iv, 2 mg/kg, compound 42 i.v., SD rat, individual rats No. 1-3, read-out: C0): 11500 ng/mL; MRT ([1]; Sprague-Dawley, rat, serum, iv, 2 mg/kg, compound 42 i.v., SD rat, individual rats No. 1-3, read-out: MRT): 1.3 h; half-life ([1]; Sprague-Dawley, rat, serum, iv, 2 mg/kg, compound 42 i.v., formulation and route otherwise identical to compound 82, SD rat, Mean): 1.52 h; C0 ([1]; Sprague-Dawley, rat, serum, iv, 2 mg/kg, compound 42 i.v., formulation and route otherwise identical to compound 82, SD rat, Mean, read-out: C0): 11500 ng/mL; MRT ([1]; Sprague-Dawley, rat, serum, iv, 2 mg/kg, compound 42 i.v., formulation and route otherwise identical to compound 82, SD rat, Mean, read-out: MRT): 1.26 h; C0 [1, 8]: 11344 ng/mL and 11625 ng/mL; MRT [1, 8]: 1.20 h and 1.28 h; T1/2 [1, 8]: 1.40 h and 0.99 h and 2.16 h; half-life ([2]; Sprague-Dawley, rat, serum, po, 20 mg/kg, compound 42 oral, SD rat, individual rats No. 1-3): 3.28 h; MRT ([2]; Sprague-Dawley, rat, serum, po, 20 mg/kg, compound 42 oral, SD rat, individual rats No. 1-3, read-out: MRT): 3.46 h; Tmax ([2]; Sprague-Dawley, rat, serum, po, 20 mg/kg, compound 42 oral, SD rat, individual rats No. 1-3, read-out: Tmax): 1.5 h; half-life ([2]; Sprague-Dawley, rat, serum, po, 20 mg/kg, compound 42 oral, formulation and route otherwise identical to compound 82, SD rat, Mean): 3.18 h; MRT ([2]; Sprague-Dawley, rat, serum, po, 20 mg/kg, compound 42 oral, formulation and route otherwise identical to compound 82, SD rat, Mean, read-out: MRT): 3.36 h; Tmax ([2]; Sprague-Dawley, rat, serum, po, 20 mg/kg, compound 42 oral, formulation and route otherwise identical to compound 82, SD rat, Mean, read-out: Tmax): 1.33 h; MRT [2, 9]: 3.78 h and 2.83 h; T1/2 [2, 9]: 3.30 h and 2.97 h; Tmax [2, 9]: 1 h
CC[C@]1(O)C[C@H]2CN(CCc3c([nH]c4ccccc34)[C@@](C(=O)OC)(c3cc4c(cc3OC)N(C=O)[C@H]3[C@@](O)(C(=O)OC)[C@H](OC(C)=O)[C@]5(CC)C=CCN6CC[C@]43[C@@H]65)C2)C1 [vincristine] | – | – | – | – | effect in combination of Hec1 inhibitors with chemotherapeutic inhibitors [3]: synergistic effect
Cc1cc(OC(C)C)cc(C)c1-c1csc(NC(=O)c2ccncc2)n1 [Compound 82] | – | – | – | – | half-life ([1]; Sprague-Dawley, rat, serum, iv, 2 mg/kg, i.v. 2 mg/kg, 5% DMSO, 10% Cremophor, 85% WFI, SD rat, Mean): 5.14 h; C0 ([1]; Sprague-Dawley, rat, serum, iv, 2 mg/kg, i.v. 2 mg/kg, 5% DMSO, 10% Cremophor, 85% WFI, SD rat, Mean, read-out: C0): 7020 ng/mL; MRT inf ([1]; Sprague-Dawley, rat, serum, iv, 2 mg/kg, i.v. 2 mg/kg, 5% DMSO, 10% Cremophor, 85% WFI, SD rat, Mean, read-out: MRT0-inf): 6.46 h; C0 ([1]; Sprague-Dawley, rat, serum, iv, 2 mg/kg, i.v. 2 mg/kg, SD rat, individual rats No. 1-3, read-out: C0): 8180 ng/mL; C0 [1, 10]: 5590 ng/mL and 7282 ng/mL; MRT0-inf [1, 10]: 8.80 h and 3.36 h and 7.22 h; T1/2 [1, 10]: 6.85 h and 2.79 h and 5.78 h; half-life [2, 11]: 4.41 h; MRT inf [2, 11]: 7.73 h; Tmax ([2]; Sprague-Dawley, rat, serum, po, 20 mg/kg, oral 20 mg/kg, 1% methyl-cellulose, SD rat, Mean, read-out: Tmax): 4 h; half-life [2, 12]: 4.53 h; MRT inf [2, 12]: 7.71 h; Tmax ([2]; Sprague-Dawley, rat, serum, po, 20 mg/kg, oral 20 mg/kg, SD rat, individual rats No. 1-3, read-out: Tmax): 4 h; MRT0-inf [2, 13]: 5.76 h and 9.72 h; T1/2 [2, 13]: 2.94 h and 5.76 h
COc1ccc(Oc2cc(C)c(-c3csc(NC(=O)c4ccncc4)n3)c(C)c2)cc1 [Compound 95] | 50 nM | 30 nM | 40 nM | 30 nM | MRT ([1]; Sprague-Dawley, rat, serum, iv, 2 mg/kg, compound 95 i.v., SD rat, individual rats No. 1-3, read-out: MRT): 131 h; half-life ([1]; Sprague-Dawley, rat, serum, iv, 2 mg/kg, compound 95 i.v., formulation and route otherwise identical to compound 82, SD rat, Mean): 7.36 h; C0 ([1]; Sprague-Dawley, rat, serum, iv, 2 mg/kg, compound 95 i.v., formulation and route otherwise identical to compound 82, SD rat, Mean, read-out: C0): 3670 ng/mL; MRT ([1]; Sprague-Dawley, rat, serum, iv, 2 mg/kg, compound 95 i.v., formulation and route otherwise identical to compound 82, SD rat, Mean, read-out: MRT): 143 h; C0 [1, 14]: 2519 ng/mL and 3144 ng/mL and 5356 ng/mL; MRT [1, 14]: 189 h and 108 h; MRT ([2]; SD, rat, serum, po, 20 mg/kg, compound 95 oral, SD rat, individual rats No. 1-3, read-out: MRT): 4.4 h; half-life ([2]; SD, rat, serum, po, compound 95 oral, formulation and route otherwise identical to compound 82, SD rat, Mean): 10.9 h; MRT ([2]; SD, rat, serum, po, compound 95 oral, formulation and route otherwise identical to compound 82, SD rat, Mean, read-out: MRT): 4.24 h; Tmax ([2]; SD, rat, serum, po, compound 95 oral, formulation and route otherwise identical to compound 82, SD rat, Mean, read-out: Tmax): 3 h; half-life ([2]; Sprague-Dawley, rat, serum, po, 20 mg/kg, compound 95 oral, SD rat, individual rats No. 1-3): 9.96 h; MRT [2, 15]: 4.38 h and 3.92 h; T1/2 [2, 15]: 12.86 h and 9.75 h; Tmax [2, 15]: 4.00 h and 1.00 h
Cc1cc(C)c(-c2csc(NC(=O)c3ccccn3)n2)c(C)n1 [Compound 45] | > 10000 nM | > 10000 nM | 7680 nM | > 10000 nM | –
COc1ccc(Oc2cc(C)c(-c3csc(NC(=O)c4ccncc4C)n3)c(C)c2)cc1 [Compound 121] | 900 nM | 320 nM | 810 nM | 440 nM | –
Cc1ccc(Sc2cc(C)c(-c3csc(NC(=O)c4ccncc4)n3)c(C)c2)cc1 [Compound 116] | 150 nM | 110 nM | 130 nM | 120 nM | –
Cc1cc(C)c(-c2csc(NC(=O)c3ccc4[nH]ncc4c3)n2)c(C)c1 [Compound 105] | > 10000 nM | > 10000 nM | 8020 nM | > 10000 nM | –
Cc1cc(I)cc(C)c1-c1csc(NC(=O)c2ccncc2)n1 [Compound 114] | 400 nM | 230 nM | 550 nM | 300 nM | –
CCOc1cc(C)c(-c2csc(NC(=O)c3ccnc(F)c3)n2)c(C)c1 [Compound 70] | 30 nM | 160 nM | 210 nM | 110 nM | –
Cc1cc(OCC(O)CO)cc(C)c1-c1csc(NC(=O)c2ccncc2)n1 (stereo not shown) [Compound 97] | 3260 nM | 9110 nM | 3110 nM | 8300 nM | –
COc1ccc(Oc2cc(C)c(-c3csc(NC(=O)c4ccnc([N+](=O)[O-])c4)n3)c(C)c2)cc1 [Compound 124] | 330 nM | 120 nM | 530 nM | 220 nM | –
COc1cc(-c2csc(NC(=O)c3ccncc3)n2)cc(OC)c1OC [Compound 27] | > 10000 nM | > 10000 nM | > 10000 nM | > 10000 nM | –
Cc1sc(NC(=O)c2ccc(C#N)cc2)nc1-c1ccccc1 [Compound 38] | > 10000 nM | > 10000 nM | 3400 nM | 5680 nM | –
CC(=O)Nc1cc(C(=O)Nc2nc(-c3c(C)cc(C)cc3C)cs2)ccn1 [Compound 89] | > 10000 nM | > 10000 nM | 8200 nM | > 10000 nM | –
Cc1sc(NC(=O)c2ccncc2)nc1-c1ccccc1 [Compound 2] | > 10000 nM | > 10000 nM | 8150 nM | > 10000 nM | –
Cc1cc(C)c(-c2csc(NC(=O)c3ccncc3F)n2)c(C)c1 [Compound 77] | 2290 nM | 2820 nM | 2780 nM | 1220 nM | –
Cc1cc(C)c(-c2csc(NC(=O)c3cncs3)n2)c(C)c1 [Compound 9] | 1510 nM | 2680 nM | 1830 nM | 1240 nM | –
Cc1cc(S(C)(=O)=O)cc(C)c1-c1csc(NC(=O)c2ccncc2)n1 [Compound 127] | 840 nM | 530 nM | 460 nM | 450 nM | –
Cc1cc(Cc2ccccc2)cc(C)c1-c1csc(NC(=O)c2ccncc2)n1 [Compound 118] | 270 nM | 150 nM | 220 nM | 240 nM | –
COc1ccc(Oc2cc(C)c(-c3csc(NC(=O)c4ccnc(N)c4)n3)c(C)c2)cc1 [Compound 128] | 240 nM | 190 nM | 160 nM | 160 nM | –
Cc1sc(NC(=O)c2cccnc2)nc1-c1ccccc1 [Compound 3] | > 10000 nM | > 10000 nM | > 10000 nM | > 10000 nM | –
COc1cc(-c2csc(NC(=O)c3cccnc3)n2)ccc1O [Compound 35] | > 10000 nM | > 10000 nM | > 10000 nM | > 10000 nM | –
